Data as given in patent publication US20220119767A1, “NATURAL KILLER CELL INDUCED CELLULAR VESICLES FOR CANCER THERAPY” (The Regents of the University of California, priority 2019, published 2022).

Test system: K562 leukemia cancer cells
Protocol: DOX-loaded ICVs were tested for cytotoxicity to K562 cancer cells compared to free DOX, as assessed by using an MTT assay (see FIG. 5).

COc1cccc2c1C(=O)c1c(O)c3c(c(O)c1C2=O)C[C@@](O)(C(=O)CO)C[C@@H]3O[C@H]1C[C@H](N)[C@H](O)[C@H](C)O1 [DOX, doxorubicin]
order of K562 cytotoxicity: DOX>NK92 ICVs-DOX>K562 ICVs-DOX
